Data published in ChEMBL document CHEMBL1132852, “Synthesis and structure-activity relationships of 4-oxo-1-phenyl-3,4,6,7-tetrahydro-[1,4]diazepino[6,7,1-hi]indoles: novel PDE4 inhibitors” (Bioorg Med Chem Lett, 2000).
Calls of active or inactive are those of the source. No cut-off for these calls is given here.

Assays:
[1] = test system: Canis familiaris; experiment: Emetic effect in dogs administered at 0.03 mg/kg intravenously (No effect); format: functional, organism-based; design: dose 0.03 mg/kg; details: Canis lupus familiaris
[2] = target: Phosphodiesterase, PDE1/PDE5 (Homo sapiens, UniProt O76074+P54750+Q01064+Q14123); experiment: Inhibitory activity against phosphodiesterase 1/5 (PDE1/5) extracted from guinea pig trachea smooth muscle cells by using radioligands [3H]-cAMP or [3H]cGMP; format: tissue-based, Cavia porcellus; details: target entry is the homologue from another species
[3] = target: Phosphodiesterase 3 (Homo sapiens, UniProt Q14432+Q13370); experiment: Inhibition of Phosphodiesterase 3 extracted from dog aorta smooth muscle cells by using radioligands [3H]cAMP or [3H]-cGMP.; design: species or system Canis lupus familiaris; details: target entry is the homologue from another species
[4] = target: Phosphodiesterase 4 (Homo sapiens, UniProt P27815+Q08499+Q07343+Q08493); experiment: Inhibition of phosphodiesterase 4 extracted from human U937 cells by using radioligands [3H]-cAMP or [3H]cGMP.; format: cell-free; details: u-937
[5] = test system: Canis familiaris; experiment: Emetic effect in dogs administered at 3 mg/kg intravenously (no effect); format: functional, organism-based; design: dose 3 mg/kg; details: Canis lupus familiaris
[6] = test system: Rattus norvegicus; experiment: Inhibition of antigen-induced lung eosinophilia in ovalbumin sensitized brown-norway rats after oral administration; format: functional
[7] = test system: Canis familiaris; experiment: Emetic effect in dogs administered at 3 mg/kg intravenously (No effect); format: functional, organism-based; design: dose 3 mg/kg; details: Canis lupus familiaris
[8] = target: Phosphodiesterase 4 (Rattus norvegicus, UniProt P14270+P14646+P14644+P54748); experiment: Displacement of [3H]rolipram from rat brain membrane suspensions; format: functional, tissue-based

| SMILES | Activity [1] | IC50 [2] [µM] | IC50 [3] [µM] | IC50 [4] [µM] | Activity [5] | ED50 [6] [mg/kg] | Activity [7] | IC50 [8] [µM] |
| --- | --- | --- | --- | --- | --- | --- | --- | --- |
| COc1ccc(C2CNC(=O)C2)cc1OC1CCCC1 (stereo not given) | inactive |  |  |  |  |  |  |  |
| COc1cc2c3c(c1)C(c1ccccc1)=N[C@@H](NC(=O)c1ccc(Cl)cc1)C(=O)N3CC2 |  | 40 | 62 | 1.8 |  |  |  |  |
| O=C(N[C@H]1N=C(c2ccccc2)c2cccc3c2N(CC3)C1=O)c1cc2ccccc2[nH]1 |  | 100 | > 100 | 100 |  |  |  |  |
| COc1ccc(C(=O)N[C@@H]2N=C(c3ccccc3)c3cc(C)cc4c3N(CC4)C2=O)c(OC)c1 |  |  | 7.85 | 0.96 |  |  |  |  |
| COc1ccccc1C(=O)N[C@@H]1N=C(c2ccccc2)c2cc(C)cc3c2N(CC3)C1=O |  | 71.7 | > 100 | 0.76 |  |  |  |  |
| Cc1cc2c3c(c1)C(c1ccccc1)=N[C@@H](NC(=O)c1nnc4cc(C)nn4c1C)C(=O)N3CC2 |  | > 100 | > 100 | 0.71 |  |  |  |  |
| Nc1c(Cl)cc(C(=O)N[C@@H]2N=C(c3ccccc3)c3cccc4c3N(CC4)C2=O)cc1Cl |  | > 100 | > 100 | 0.63 |  |  |  |  |
| O=C(NC1N=C(c2ccccc2)c2ccccc2NC1=O)c1cc2ccccc2[nH]1 (stereo not given) |  |  | > 100 | > 100 |  |  |  |  |
| O=C(N[C@@H]1N=C(c2ccccc2)c2cccc3c2N(CC3)C1=O)c1cc2ccccc2[nH]1 |  | > 100 | > 100 | 4 |  |  |  |  |
| Cc1cc2c3c(c1)C(c1ccccc1)=N[C@@H](NC(=O)c1ccc(Cl)cc1)C(=O)N3CC2 |  | > 100 | 27 | 1.25 |  |  |  |  |
| O=C(N[C@@H]1N=C(c2ccccc2F)c2cccc3c2N(CC3)C1=O)c1cc2ccccc2[nH]1 |  |  | > 100 | > 100 |  |  |  |  |
| O=C(NC1N=C(c2ccccc2F)c2cc(Cl)cc3c2N(CC3)C1=O)c1cc2ccccc2[nH]1 (stereo not given) |  |  | > 100 | > 100 |  |  |  |  |
| O=C(NC1N=C(c2ccccc2)c2cccc3c2N(CCC3)C1=O)c1cc2ccccc2[nH]1 (stereo not given) |  | > 100 | > 100 | > 100 |  |  |  |  |
| COc1cc2c3c(c1)C(c1ccccc1)=N[C@@H](NC(=O)c1cc4ccccc4cn1)C(=O)N3CC2 |  | 65.3 | 82 | 1.62 |  |  |  |  |
| O=C(N[C@@H]1N=C(c2ccccc2)c2cc(O)cc3c2N(CC3)C1=O)c1cc2ccccc2cn1 |  | > 100 | > 3.5 | 0.41 |  |  |  |  |
| COc1cc2c3c(c1)C(c1ccccc1)=N[C@@H](NC(=O)c1cc4ccccc4[nH]1)C(=O)N3CC2 |  | 100 | > 100 | 0.65 |  |  |  |  |
| Cc1cc2c3c(c1)C(c1ccccc1)=N[C@@H](NC(=O)c1ccncc1)C(=O)N3CC2 |  | > 100 | > 100 | 1.14 | inactive | 6.9 |  |  |
| Cc1cc2c3c(c1)C(c1ccccc1)=N[C@@H](NC(=O)c1cc(Cl)cc(Cl)c1)C(=O)N3CC2 |  | > 100 | 43.7 | 1.15 |  |  |  |  |
| Cc1cc2c3c(c1)C(c1ccccc1)=N[C@@H](NC(=O)c1cc(Cl)c(N)c(Cl)c1)C(=O)N3CC2 |  | > 100 | 17.5 | 0.33 |  |  |  |  |
| Cc1cc2c3c(c1)C(c1ccccc1)=N[C@@H](NC(=O)c1cc4ccccc4cn1)C(=O)N3CC2 |  | > 100 | > 100 | 2.6 |  | 10.7 | inactive | > 3 |
| Cc1cc2c3c(c1)C(c1ccccc1)=N[C@@H](NC(=O)c1ccc(Cl)cc1Cl)C(=O)N3CC2 |  | > 100 | 17.5 | 0.76 |  |  |  |  |
| O=C(N[C@@H]1N=C(c2ccccc2)c2cccc3c2N(CC3)C1=O)c1cc2ccccc2cn1 |  | > 100 | > 100 | 4.2 |  |  |  |  |
